According to patent US10800741B2 (ANCUREALL PHARMACEUTICAL (SHANGHAI) CO., LTD., priority 2017, dated 2020):

Experiments:
Type in all cases: cell-based, Human
H1581 (FGFR1 amp) = assay: In vitro growth inhibition of H1581 tumor cells (MTT/CCK8); conditions: Homo sapiens, NCI-H1581; in vitro growth inhibition (or induction of apoptosis), cells cultured 3 to 5 days, MTT (CCK8); read-out: IC50 H1581 (FGFR1 amp)
KATO III (FGFR2 amp) = assay: In vitro growth inhibition of KATO III tumor cells (MTT/CCK8); conditions: Homo sapiens, KATO III; in vitro growth inhibition (or induction of apoptosis), cells cultured 3 to 5 days, MTT (CCK8); read-out: IC50 KATO III (FGFR2 amp)
Hep3B2 (FGFR3/4+++) = assay: In vitro growth inhibition of Hep3B2 tumor cells (MTT/CCK8); conditions: Homo sapiens, Hep3B; in vitro growth inhibition (or induction of apoptosis), cells cultured 3 to 5 days, MTT (CCK8); read-out: IC50 Hep3B2 (FGFR3/4+++)
MOLM-13 (FLT3-ITD) = assay: In vitro growth inhibition of MOLM-13 tumor cells (MTT/CCK8); conditions: Homo sapiens, MOLM-13; in vitro growth inhibition (or induction of apoptosis), cells cultured 3 to 5 days, MTT (CCK8); read-out: IC50 MOLM-13 (FLT3-ITD)
KCL-22 (BCR-ABL) = assay: In vitro growth inhibition of KCL-22 tumor cells (MTT/CCK8); conditions: Homo sapiens, KCL-22; in vitro growth inhibition (or induction of apoptosis), cells cultured 3 to 5 days, MTT (CCK8); read-out: IC50 KCL-22 (BCR-ABL)
Kasumi-1 (KIT N822K) = assay: In vitro growth inhibition of Kasumi-1 tumor cells (MTT/CCK8); conditions: Homo sapiens, Kasumi 1; in vitro growth inhibition (or induction of apoptosis), cells cultured 3 to 5 days, MTT (CCK8); read-out: IC50 Kasumi-1 (KIT N822K)
H1703 (PDGFRa amp) = assay: In vitro growth inhibition of H1703 tumor cells (MTT/CCK8); conditions: Homo sapiens, NCI-H1703; in vitro growth inhibition (or induction of apoptosis), cells cultured 3 to 5 days, MTT (CCK8); read-out: IC50 H1703 (PDGFRa amp)
Karpas 299 (NPM-ALK) = assay: In vitro growth inhibition of Karpas 299 tumor cells (MTT/CCK8); conditions: Homo sapiens, KARPAS-299; in vitro growth inhibition (or induction of apoptosis), cells cultured 3 to 5 days, MTT (CCK8); read-out: IC50 Karpas 299 (NPM-ALK)

IC50 (H1581 (FGFR1 amp)) [nM] | IC50 (KATO III (FGFR2 amp)) [nM] | IC50 (Hep3B2 (FGFR3/4+++)) [nM] | IC50 (MOLM-13 (FLT3-ITD)) [nM] | IC50 (KCL-22 (BCR-ABL)) [nM] | IC50 (Kasumi-1 (KIT N822K)) [nM] | IC50 (H1703 (PDGFRa amp)) [nM] | IC50 (Karpas 299 (NPM-ALK)) [nM] | SMILES
16.5 | 1.46 | 39.6 | 6.32 | 21.8 | 34.2 | 25.7 | 413 | CNC(=O)c1cc2c(Oc3ccc(NC(=O)Nc4cc(C(C)(C)C)n[nH]4)c(Cl)c3)ccnc2cc1OC [Compound 45, 4-{4-[3-(5-tert-butyl-2H-pyrazol-3-yl)-ureido]-3-chloro-phenoxy}-7-methoxyquinolin-6-carboxylic acid methylamide]
3.06 | 0.98 | 39.1 | 6.98 | 8.17 | 14.4 | 8.8 | 384 | CNC(=O)c1cc2c(Oc3ccc(NC(=O)Nc4cc(C(C)(C)C)nn4C)c(Cl)c3)ccnc2cc1OC [Compound 46, 4-{4-[3-(5-tert-butyl-2-methyl-2H-pyrazol-3-yl)-ureido]-3-chloro-phenoxy}-7-methoxy quinolin-6-carboxylic acid methylamide]
4.93 | 0.73 | 39.3 | 7.42 | 9.38 | 15.9 | 14.7 | 466 | CCn1nc(C(C)(C)C)cc1NC(=O)Nc1ccc(Oc2ccnc3cc(OC)c(C(=O)NC)cc23)cc1Cl [Compound 47]
11.7 | 1.36 | 44.1 | 11.6 | 22.3 | 35.7 | 25.9 | 502 | CNC(=O)c1cc2c(Oc3ccc(NC(=O)Nc4cc(C(C)(C)C)nn4C4CCCC4)c(Cl)c3)ccnc2cc1OC [Compound 48, 4-{4-[3-(5-tert-butyl-2-cyclopentyl-2H-pyrazol-3-yl)-ureido]-3-chloro-phenoxy}-7-methoxyquinolin-6-carboxylic acid methylamide]
63.1 | 2.93 | 93.1 | 18.1 | 31.2 | 100 | 15.4 | > 1000 | CNC(=O)c1cc2c(Oc3ccc(NC(=O)Nc4cc(C(C)(C)C)n[nH]4)c(C)c3)ccnc2cc1OC [Compound 49, 4-{4-[3-(5-tert-butyl-2H-pyrazol-3-yl)-ureido]-3-methyl-phenoxy}-7-methoxyquinolin-6-carboxylate acid methylamide]
59.5 | 0.31 | 96.6 | 16.2 | 90 | 65.6 | 14.5 | 795 | CNC(=O)c1cc2c(Oc3ccc(NC(=O)Nc4cc(C(C)(C)C)nn4C)c(C)c3)ccnc2cc1OC [Compound 50, 4-{4-[3-(5-tert-butyl-2-methyl-2H-pyrazol-3-yl)-ureido]-3-methyl-phenoxy}-7-methoxy quinolin-6-carboxylate acid methylamide]
51.4 | 1.14 | 88 | 142 | 13 | 12.7 | 48.4 | 493 | CNC(=O)c1cc2c(Oc3ccc(NC(=O)Nc4cc(C(C)(C)C)n[nH]4)c(C(F)(F)F)c3)ccnc2cc1OC [Compound 51, 4-{4-[3-(5-tert-butyl-2H-pyrazol-3-yl)-ureido]-3-trifluoromethyl-phenoxy}-7-methoxyquinolin-6-carboxylic acid methylamide]
218 | 6.81 | 344 | 1.12 | 28.6 | 17.7 | 64 | 302 | CNC(=O)c1cc2c(Oc3ccc(NC(=O)Nc4cc(C(C)(C)C)nn4C)cc3C)ccnc2cc1OC [Compound 53, 4-{4-[3-(5-tert-butyl-2-methyl-2H-pyrazol-3-yl)-ureido]-2-methyl-phenoxy}-7-methoxy quinolin-6-carboxylate acid methylamide]
79.9 | 2.96 | 157 | 1.16 | 57 | 91.8 | 83.3 | 160 | CNC(=O)c1cc2c(Oc3ccc(NC(=O)Nc4cc(C(C)(C)C)nn4C)cc3Cl)ccnc2cc1OC [Compound 55, 4-{4-[3-(5-tert-butyl-2-methyl-2H-pyrazol-3-yl)-ureido]-2-chloro-phenoxy}-7-methoxy quinolin-6-carboxylic acid methylamide]
3.66 | 0.28 | 17.6 | 2.87 | 1.4 | 1.07 | 18.9 | 39.2 | CNC(=O)c1cc2c(Oc3ccc(NC(=O)Nc4cc(C(C)(C)C)n[nH]4)c(Cl)c3Cl)ccnc2cc1OC [Compound 56, 4-{4-[3-(5-tert-butyl-2H-pyrazol-3-yl)-ureido]-2,3-dichloro-phenoxy}-7-methoxyquinol in-6-carboxylic acid methylamide]
2.85 | 0.41 | 21.9 | 1.29 | 2.58 | 3 | 11.7 | 69.3 | CNC(=O)c1cc2c(Oc3ccc(NC(=O)Nc4cc(C(C)(C)C)nn4C)c(Cl)c3Cl)ccnc2cc1OC [Compound 57, 4-{4-[3-(5-tert-butyl-2-methyl-2H-pyrazol-3-yl)-ureido]-2,3-dichloro-phenoxy}-7-methoxyquinolin-6-carboxylic acid methylamide]
5.5 | 0.58 | 18.2 | 2.33 | 3.11 | 10.3 | 14.8 | 417 | CNC(=O)c1cc2c(Oc3ccc(NC(=O)Nc4cc(C(C)(C)C)n[nH]4)c(Cl)c3)ccnc2cc1OCCOC [Compound 58, 4-{4-[3-(5-tert-butyl-2H-pyrazol-3-yl)-ureido]-3-chloro-phenoxy}-7-(2-methoxy-ethoxy)-quinolin-6-carboxylic acid methylamide]
5.05 | 0.11 | 19.4 | 2.95 | 9.62 | 1.95 | 8.17 | 195 | CNC(=O)c1cc2c(Oc3ccc(NC(=O)Nc4cc(C(C)(C)C)nn4C)c(Cl)c3)ccnc2cc1OCCOC [Compound 59, 4-{4-[3-(5-tert-butyl-2-methyl-2H-pyrazol-3-yl)-ureido]-3-chloro-phenoxy}-7-(2-methoxy-ethoxy)-quinolin-6-carboxylic acid methylamide]
1.31 | 0.36 | 5.2 | 0.89 | 1.05 | 0.493 | 6.71 | 12.4 | CNC(=O)c1cc2c(Oc3ccc(NC(=O)Nc4cc(C(C)(C)C)nn4C)c(Cl)c3Cl)ccnc2cc1OCCOC [Compound 60, 4-{4-[3-(5-tert-butyl-2-methyl-2H-pyrazol-3-yl)-ureido]-2,3-dichloro-phenoxy}-7-(2-methoxy-ethoxy)-quinolin-6-carboxylic acid methylamide]
133 | 18.4 | 368 | 61.4 | 599 | 571 | 75.8 | 606 | COc1cc2nccc(Oc3ccc(NC(=O)Nc4cc(C(C)(C)C)n[nH]4)c(Cl)c3)c2cc1C(=O)N(C)C [Compound 61]
13.7 | 1.89 | 73.2 | 7.83 | 25.8 | 47.5 | 93.1 | 312 | COCCNC(=O)c1cc2c(Oc3ccc(NC(=O)Nc4cc(C(C)(C)C)n[nH]4)c(Cl)c3)ccnc2cc1OC [Compound 62, 4-{4-[3-(5-tert-butyl-2H-pyrazol-3-yl)-ureido]-3-chloro-phenoxy}-7-methoxyquinolin-6-carboxylic acid (2-methoxy-ethyl)-amide]
4.26 | 0.31 | 15.9 | 3.12 | 4.68 | 8.81 | 12 | 113 | COc1cc2nccc(Oc3ccc(NC(=O)Nc4cc(C(C)(C)C)n[nH]4)c(Cl)c3)c2cc1NC(C)=O [Compound 63, N-(4-{4-[3-(5-tert-butyl-2H-pyrazol-3-yl)-ureido]-3-chloro-phenoxy}-7-methoxyquinolin-6-yl)-acetamide]
